The source made the active and inactive calls. No rule for the calls is given here.
Test system: CCRIS mutagenicity, Ames/micronucleus/aberration tests
Test: CCRIS mutagenicity studies
[1] = Test System: AMES SALMONELLA TYPHIMURIUM, Strain/Indicator: TA98, Metabolic Activation: NONE, Method: STANDARD PLATE
[2] = Test System: AMES SALMONELLA TYPHIMURIUM, Strain/Indicator: TA100, Metabolic Activation: NONE, Method: STANDARD PLATE
[3] = Test System: AMES SALMONELLA TYPHIMURIUM, Strain/Indicator: TA98, Metabolic Activation: HAMSTER, LIVER, S-9, AROCLOR 1254 (10%), Method: PREINCUBATION
[4] = Test System: AMES SALMONELLA TYPHIMURIUM, Strain/Indicator: TA98, Metabolic Activation: RAT, LIVER, S-9, AROCLOR 1254 (10%), Method: PREINCUBATION
[5] = Test System: AMES SALMONELLA TYPHIMURIUM, Strain/Indicator: TA100, Metabolic Activation: HAMSTER, LIVER, S-9, AROCLOR 1254 (10%), Method: PREINCUBATION
[6] = Test System: AMES SALMONELLA TYPHIMURIUM, Strain/Indicator: TA100, Metabolic Activation: RAT, LIVER, S-9, AROCLOR 1254 (10%), Method: PREINCUBATION
[7] = Test System: AMES SALMONELLA TYPHIMURIUM, Strain/Indicator: TA1535, Metabolic Activation: NONE, Method: PREINCUBATION
[8] = Test System: AMES SALMONELLA TYPHIMURIUM, Strain/Indicator: TA1535, Metabolic Activation: RAT, LIVER, S-9, AROCLOR 1254 (10%), Method: PREINCUBATION

Measured: mutagenic call

Nc1ccc(-c2ccc(N)cc2[N+](=O)[O-])cc1
inactive: [2] inactive; negative
active: Test System: AMES SALMONELLA TYPHIMURIUM, Strain/Indicator: TA98(1,8-DNP6), Metabolic Activation: NONE, Method: STANDARD PLATE active; positive | Test System: AMES SALMONELLA TYPHIMURIUM, Strain/Indicator: TA98(1,8-DNP6), Metabolic Activation: S-9, Method: STANDARD PLATE active; positive | [1] active; positive | Test System: AMES SALMONELLA TYPHIMURIUM, Strain/Indicator: TA98, Metabolic Activation: S-9, Method: STANDARD PLATE active; positive | Test System: AMES SALMONELLA TYPHIMURIUM, Strain/Indicator: TA100, Metabolic Activation: S-9, Method: STANDARD PLATE active; positive

CN(C)/N=N/c1nc[nH]c1C(N)=O
active: Test System: AMES SALMONELLA TYPHIMURIUM, Strain/Indicator: G46, Metabolic Activation: RAT, LIVER, S-9, PHENOBARBITAL, Method: STANDARD PLATE active; positive | Test System: AMES SALMONELLA TYPHIMURIUM, Strain/Indicator: TA92, Metabolic Activation: NONE, Method: STANDARD PLATE active; positive | Test System: AMES SALMONELLA TYPHIMURIUM, Strain/Indicator: TA92, Metabolic Activation: RAT, LIVER, S-9, PHENOBARBITAL, Method: STANDARD PLATE active; positive | Test System: AMES SALMONELLA TYPHIMURIUM, Strain/Indicator: TA97, Metabolic Activation: HAMSTER, LIVER, S-9, AROCLOR 1254 (10%), Method: PREINCUBATION active; positive | Test System: AMES SALMONELLA TYPHIMURIUM, Strain/Indicator: TA97, Metabolic Activation: NONE, Method: PREINCUBATION active; positive | Test System: AMES SALMONELLA TYPHIMURIUM, Strain/Indicator: TA97, Metabolic Activation: RAT, LIVER, S-9, AROCLOR 1254 (10%), Method: PREINCUBATION active; positive | [3] active; positive | [4] active; positive | [5] active; positive | [2] active; positive | [6] active; positive | Test System: AMES SALMONELLA TYPHIMURIUM, Strain/Indicator: TA100, Metabolic Activation: RAT, LIVER, S-9, PHENOBARBITAL, Method: STANDARD PLATE active; positive | Test System: AMES SALMONELLA TYPHIMURIUM, Strain/Indicator: TA1535, Metabolic Activation: HAMSTER, LIVER, S-9, AROCLOR 1254 (10%), Method: PREINCUBATION active; positive | [8] active; positive | Test System: E. COLI, Strain/Indicator: TM6, Metabolic Activation: NONE, Method: STANDARD PLATE active; positive | Test System: E. COLI, Strain/Indicator: TM6, Metabolic Activation: RAT, LIVER, S-9, PHENOBARBITAL, Method: STANDARD PLATE active; positive | Test System: E. COLI, Strain/Indicator: TM9, Metabolic Activation: NONE, Method: STANDARD PLATE active; positive | Test System: E. COLI, Strain/Indicator: TM9, Metabolic Activation: RAT, LIVER, S-9, PHENOBARBITAL, Method: STANDARD PLATE active; positive | Test System: E. COLI, Strain/Indicator: WP2, Metabolic Activation: NONE, Method: STANDARD PLATE active; positive | Test System: E. COLI, Strain/Indicator: WP2, Metabolic Activation: RAT, LIVER, S-9, PHENOBARBITAL, Method: STANDARD PLATE active; positive | Test System: E. COLI, Strain/Indicator: WP2 UVRA, Metabolic Activation: NONE, Method: STANDARD PLATE active; positive | Test System: E. COLI, Strain/Indicator: WP2 UVRA, Metabolic Activation: RAT, LIVER, S-9, PHENOBARBITAL, Method: STANDARD PLATE active; positive
inactive: Test System: AMES SALMONELLA TYPHIMURIUM, Strain/Indicator: G46, Metabolic Activation: NONE, Method: STANDARD PLATE inactive; negative | Test System: AMES SALMONELLA TYPHIMURIUM, Strain/Indicator: TA98, Metabolic Activation: S-9, Method: PREINCUBATION inactive; negative | Test System: AMES SALMONELLA TYPHIMURIUM, Strain/Indicator: TA100, Metabolic Activation: S-9, Method: PREINCUBATION inactive; negative | [7] inactive; negative

NCCNCCO
inactive: [3] inactive; negative | Test System: AMES SALMONELLA TYPHIMURIUM, Strain/Indicator: TA98, Metabolic Activation: NONE, Method: PREINCUBATION inactive; negative | [1] inactive; negative | [4] inactive; negative | Test System: AMES SALMONELLA TYPHIMURIUM, Strain/Indicator: TA98, Metabolic Activation: RAT, LIVER, S-9, AROCLOR 1254, Method: STANDARD PLATE inactive; negative | Test System: AMES SALMONELLA TYPHIMURIUM, Strain/Indicator: TA98, Metabolic Activation: RAT, LIVER, S-9, PCB, Method: PREINCUBATION inactive; negative | [5] inactive; negative | Test System: AMES SALMONELLA TYPHIMURIUM, Strain/Indicator: TA100, Metabolic Activation: NONE, Method: PREINCUBATION inactive; negative | [2] inactive; negative | [6] inactive; negative | Test System: AMES SALMONELLA TYPHIMURIUM, Strain/Indicator: TA100, Metabolic Activation: RAT, LIVER, S-9, AROCLOR 1254, Method: STANDARD PLATE inactive; negative | Test System: AMES SALMONELLA TYPHIMURIUM, Strain/Indicator: TA100, Metabolic Activation: RAT, LIVER, S-9, PCB, Method: PREINCUBATION inactive; negative | [7] inactive; negative | Test System: AMES SALMONELLA TYPHIMURIUM, Strain/Indicator: TA1535, Metabolic Activation: NONE, Method: STANDARD PLATE inactive; negative | Test System: AMES SALMONELLA TYPHIMURIUM, Strain/Indicator: TA1535, Metabolic Activation: RAT, LIVER, S-9, AROCLOR 1254, Method: STANDARD PLATE inactive; negative | Test System: AMES SALMONELLA TYPHIMURIUM, Strain/Indicator: TA1537, Metabolic Activation: HAMSTER, LIVER, S-9, AROCLOR 1254 (10%), Method: PREINCUBATION inactive; negative | Test System: AMES SALMONELLA TYPHIMURIUM, Strain/Indicator: TA1537, Metabolic Activation: NONE, Method: PREINCUBATION inactive; negative | Test System: AMES SALMONELLA TYPHIMURIUM, Strain/Indicator: TA1537, Metabolic Activation: NONE, Method: STANDARD PLATE inactive; negative | Test System: AMES SALMONELLA TYPHIMURIUM, Strain/Indicator: TA1537, Metabolic Activation: RAT, LIVER, S-9, AROCLOR 1254 (10%), Method: PREINCUBATION inactive; negative | Test System: AMES SALMONELLA TYPHIMURIUM, Strain/Indicator: TA1537, Metabolic Activation: RAT, LIVER, S-9, AROCLOR 1254, Method: STANDARD PLATE inactive; negative | Test System: AMES SALMONELLA TYPHIMURIUM, Strain/Indicator: TA1538, Metabolic Activation: NONE, Method: STANDARD PLATE inactive; negative | Test System: AMES SALMONELLA TYPHIMURIUM, Strain/Indicator: TA1538, Metabolic Activation: RAT, LIVER, S-9, AROCLOR 1254, Method: STANDARD PLATE inactive; negative | Test System: CHINESE HAMSTER OVARY, Strain/Indicator: CHO (HGPRT)/6-THIOGUANINE, Metabolic Activation: NONE inactive; negative | Test System: CHINESE HAMSTER OVARY, Strain/Indicator: CHO (HGPRT)/6-THIOGUANINE, Metabolic Activation: RAT, LIVER, S-9, AROCLOR 1254 inactive; negative | Test System: UDS RAT HEPATOCYTES, Strain/Indicator: THY INCORP, Metabolic Activation: NONE, Method: SCINTILLATION SPECTROMETRY inactive; negative
active: Test System: AMES SALMONELLA TYPHIMURIUM, Strain/Indicator: TA1535, Metabolic Activation: HAMSTER, LIVER, S-9, AROCLOR 1254 (10 OR 12%), Method: PREINCUBATION active; positive | [8] active; positive
